Assay results: the NIST ThermoML archive (doi:10.1021/je060420p)

How the values were obtained:
[1] = 101.33 kPa, Liquid
[2] = refractive index (Na D-line) (dimensionless); details: 101.33 kPa, Liquid, Standard Abbe refractometry
[3] = excess molar enthalpy (molar enthalpy of mixing); xn = mol fraction of the nth substance listed; details: 101 kPa, Liquid, Calvet calorimetry

Cc1ccc(C(C)C)cc1 [1-(1-methylethyl)-4-methylbenzene]
Details	mass density, 298.15 K [kg/m3]	mass density, 308.15 K [kg/m3]	mass density, 318.15 K [kg/m3]	refractive index, 298.15 K	refractive index, 308.15 K	refractive index, 318.15 K
[1]	853.47	845.59	838.46	–	–	–
[2]	–	–	–	1.4878	1.4831	1.4789

C=C1CCC2CC1C2(C)C (stereo not drawn) [β-pinene]
Details	mass density, 298.15 K [kg/m3]	mass density, 308.15 K [kg/m3]	mass density, 318.15 K [kg/m3]	refractive index, 298.15 K	refractive index, 308.15 K	refractive index, 318.15 K
[1]	867.06	859.08	852.08	–	–	–
[2]	–	–	–	1.476	1.4714	1.4665

CC1=CCC2CC1C2(C)C (centres undefined) [2-pinene]
Details	mass density, 298.15 K [kg/m3]	mass density, 308.15 K [kg/m3]	mass density, 318.15 K [kg/m3]	refractive index, 298.15 K	refractive index, 308.15 K	refractive index, 318.15 K
[1]	854.03	845.79	838.64	–	–	–
[2]	–	–	–	1.4626	1.4581	1.4542

CC1=CCC2CC1C2(C)C (centres undefined) [2-pinene] + C=C1CCC2CC1C2(C)C
[3]
Details	excess molar enthalpy [kcal/mol]
298.15 K, x1 = 0.2012	0.00167
298.15 K, x1 = 0.3013	0.0022
298.15 K, x1 = 0.3987	0.00253
298.15 K, x1 = 0.4993	0.00265
298.15 K, x1 = 0.5994	0.00246
298.15 K, x1 = 0.7023	0.00227
298.15 K, x1 = 0.7998	0.00174
308.15 K, x1 = 0.2	0.00179
308.15 K, x1 = 0.3004	0.00241
308.15 K, x1 = 0.3999	0.00272
308.15 K, x1 = 0.5006	0.00284
308.15 K, x1 = 0.6013	0.00261
308.15 K, x1 = 0.6972	0.00237
308.15 K, x1 = 0.7998	0.00177
318.15 K, x1 = 0.2003	0.0021
318.15 K, x1 = 0.3001	0.00268
318.15 K, x1 = 0.4034	0.00304
318.15 K, x1 = 0.5	0.00315
318.15 K, x1 = 0.6004	0.00301
318.15 K, x1 = 0.7012	0.00272
318.15 K, x1 = 0.7975	0.00201
